Experimental data: paper PMC7571155, “Design, Synthesis and Biological Investigation of Flavone Derivatives as Potential Multi-Receptor Atypical Antipsychotics” (Molecules, 2020)
Read-outs that look alike come from different tables or passages of the source.

Experiments:
5-HT2A receptor = 5-HT2A receptor (Rattus norvegicus, UniProt P14842); test: 5-HT2A receptor radioligand binding (3H-ketanserin); details: rat brain cortex, 3H-ketanserin, mean ± SEM of three experiments
D2 receptor = D2 receptor (Rattus norvegicus, UniProt P61169); test: D2 receptor radioligand binding (3H-spiperone); details: 3H-spiperone, mean ± SEM of three experiments
D2L receptor = biological target: T1, D2L receptor (Homo sapiens, UniProt P14416); test: Intrinsic activity, FLIPR calcium assay, HEK293/D2L; assay type: cell-based
T1 construct: expressed in transfected cells; host or cells: HEK293

[1] = Receptor Affinity Ki ± SEM 5-HT2A
[2] = Receptor Affinity Ki ± SEM D2, rat striatum
[3] = read-out: Receptor Affinity Ki ± SEM 5-HT2A
[4] = read-out: Receptor Affinity Ki ± SEM D2, rat striatum

Sequence of D2 receptor (P61169 whole entry): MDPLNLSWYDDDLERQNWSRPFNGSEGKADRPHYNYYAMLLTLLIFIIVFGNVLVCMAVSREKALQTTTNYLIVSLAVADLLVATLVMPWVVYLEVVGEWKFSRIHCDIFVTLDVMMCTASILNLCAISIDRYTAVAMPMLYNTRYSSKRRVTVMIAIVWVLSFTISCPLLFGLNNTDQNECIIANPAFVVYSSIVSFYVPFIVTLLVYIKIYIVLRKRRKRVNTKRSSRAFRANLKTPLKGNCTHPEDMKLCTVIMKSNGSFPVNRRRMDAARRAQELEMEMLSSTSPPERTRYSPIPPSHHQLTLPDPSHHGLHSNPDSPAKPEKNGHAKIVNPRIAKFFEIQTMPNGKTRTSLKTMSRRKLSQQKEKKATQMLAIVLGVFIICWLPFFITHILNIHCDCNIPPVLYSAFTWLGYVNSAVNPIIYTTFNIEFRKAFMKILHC
Sequence of 5-HT2A receptor (P14842 whole entry): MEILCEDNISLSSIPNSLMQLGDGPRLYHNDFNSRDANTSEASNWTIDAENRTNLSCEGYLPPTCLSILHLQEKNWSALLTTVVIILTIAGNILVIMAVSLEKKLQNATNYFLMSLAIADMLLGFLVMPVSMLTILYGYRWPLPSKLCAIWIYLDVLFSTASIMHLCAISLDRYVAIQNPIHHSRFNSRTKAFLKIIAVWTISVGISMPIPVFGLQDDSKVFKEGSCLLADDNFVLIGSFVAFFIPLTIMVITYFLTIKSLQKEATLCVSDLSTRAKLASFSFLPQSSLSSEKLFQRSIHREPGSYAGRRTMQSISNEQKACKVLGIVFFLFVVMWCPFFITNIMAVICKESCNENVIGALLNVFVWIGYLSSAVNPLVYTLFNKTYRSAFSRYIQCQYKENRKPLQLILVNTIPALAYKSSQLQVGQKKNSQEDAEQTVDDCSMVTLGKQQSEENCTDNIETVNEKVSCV
T1 sequence (P14416 whole entry): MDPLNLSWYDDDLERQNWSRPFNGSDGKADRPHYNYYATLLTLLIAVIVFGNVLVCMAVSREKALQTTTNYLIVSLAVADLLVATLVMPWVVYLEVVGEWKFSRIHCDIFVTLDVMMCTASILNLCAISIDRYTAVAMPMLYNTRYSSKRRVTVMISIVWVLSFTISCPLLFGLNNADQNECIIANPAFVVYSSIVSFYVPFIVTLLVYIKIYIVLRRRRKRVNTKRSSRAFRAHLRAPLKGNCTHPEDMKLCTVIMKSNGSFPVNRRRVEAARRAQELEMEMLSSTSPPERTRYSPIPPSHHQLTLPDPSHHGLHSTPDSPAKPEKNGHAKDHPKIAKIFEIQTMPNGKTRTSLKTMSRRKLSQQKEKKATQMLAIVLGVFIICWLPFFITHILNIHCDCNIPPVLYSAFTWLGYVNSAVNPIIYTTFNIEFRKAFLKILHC

| Compound | Ki (5-HT2A receptor; [1]) [nM] | melting point [°C] | Ki (D2 receptor; [2]) [nM] | further results |
| --- | --- | --- | --- | --- |
| COc1ccccc1N1CCN(CCCCOc2ccc3c(c2)OC(C)(C)CC3=O)CC1 [Compound 6d, 7-(4-(4-(2-Methoxyphenyl)piperazin-1-yl)butoxy)-2,2-dimethylchroman-4-one] | 86.8 ± 5.6 | 128 to 130 | 2350 ± 317 | – |
| CC1Oc2cc(OCCCCN3CCC(c4noc5cc(F)ccc45)CC3)ccc2C(=O)C1C (centres unmarked) [Compound 21, 7-(4-(4-(6-fluorobenzo[d]isoxazol-3-yl)piperidin-1-yl)butoxy)-2,3-dimethylchroman-4-one] | 2.4 ± 1.9 | 82 to 84 | 28.4 ± 3.2 | – |
| CC1(C)CC(=O)c2ccc(OCCCCN3CCN(Cc4ccc5c(c4)OCO5)CC3)cc2O1 [Compound 6g, 7-(4-(4-(Benzo[d] [1, 3]dioxol-5-ylmethyl)piperazin-1-yl)butoxy)-2,2-dimethylchroman-4-one] | 380 ± 39.1 | 112 to 114 | 1140 ± 140 | – |
| COc1ccccc1N1CCN(CCCOc2ccc3c(c2)OC2(CCCCC2)CC3=O)CC1 [Compound 9e, 7-(3-(4-(2-Methoxyphenyl)piperazin-1-yl)propoxy)spiro[chromane-2,1′-cyclohexan]-4-one] | 93.5 ± 7.9 | 105 to 107 | 2050 ± 229 | – |
| CC1(C)CC(=O)c2ccc(OCCCCN3CCN(c4nsc5ccccc45)CC3)cc2O1 [Compound 6i, 7-(4-(4-(Benzo[d]isothiazol-3-yl)piperazin-1-yl)butoxy)-2,2-dimethylchroman-4-one] | 19.5 ± 2.2 | 119 to 120 | 26.2 ± 2.7 | – |
| O=C1CCOc2cc(OCCCCN3CCC(c4noc5cc(F)ccc45)CC3)ccc21 [Compound 13a, 7-(4-(4-(6-Fluorobenzo[d]isoxazol-3-yl)piperidin-1-yl)butoxy)chroman-4-one] | 9.6 ± 0.8 | – | 22.5 ± 2.6 | – |
| CC1(C)CC(=O)c2ccc(OCCCCN3CCN(c4ccccn4)CC3)cc2O1 [Compound 6e, 2,2-Dimethyl-7-(4-(4-(pyridin-2-yl)piperazin-1-yl)butoxy) chroman-4-one] | 722 ± 64.9 | 127 to 129 | 4590 ± 510 | – |
| CC1(C)CC(=O)c2ccc(OCCCN3CCC(c4noc5cc(F)ccc45)CC3)cc2O1 [Compound 6l, 7-(3-(4-(6-Fluorobenzo[d]isoxazol-3-yl)piperidin-1-yl)propoxy)-2,2-dimethylchroman-4-one] | 6.7 ± 0.7 | 116 to 118 | 18.6 ± 2.3 | – |
| COc1ccccc1N1CCN(CCCOc2ccc3c(c2)OC(C)(C)CC3=O)CC1 [Compound 6k, 7-(3-(4-(2-Methoxyphenyl)piperazin-1-yl)propoxy)-2,2-dimethylchroman-4-one] | 33.1 ± 4.5 | 103 to 105 | 3160 ± 466 | – |
| COc1ccccc1N1CCN(CCCOc2ccc3c(c2)OC2(CCCC2)CC3=O)CC1 [Compound 9a, 7-(3-(4-(2-Methoxyphenyl)piperazin-1-yl)propoxy) spiro[chromane-2,1′-cyclopentan]-4-one] | 72 ± 6.8 | 128 to 130 | 3850 ± 328 | – |
| CN1CCc2cc(Cl)c(O)cc2[C@@H](c2ccccc2)C1 [SCH23390] | – | – | – | IC50 (D2L receptor; D2L, antagonist mode, read-out: IC50): 31.6 nM; inhibition at 10 µM (D2L receptor; HEK293, read-out: Inhibition (10 μM, %), D2L, antagonist mode, 10 μM, n = 3): 99.1 ± 3.2% |
| O=C1CC2(CCCCC2)Oc2cc(OCCCCN3CCN(c4cccc(Cl)c4Cl)CC3)ccc21 [Compound 9j, 7-(4-(4-(2,3-Dichlorophenyl)piperazin-1-yl)butoxy)spiro[chromane-2,1′-cyclohexan]-4-one] | 35.8 ± 5.2 | 119 to 121 | 81.7 ± 9.7 | – |
| CC1(C)CC(=O)c2ccc(OCCCCN3CCN(c4ccccc4)CC3)cc2O1 [Compound 6a, 2,2-Dimethyl-7-(4-(4-phenylpiperazin-1-yl)butoxy) chroman-4-one] | 89.8 ± 11.3 | 131 to 133 | 553 ± 68.7 | – |
| O=C1CC2(CCCC2)Oc2cc(OCCCN3CCC(c4noc5cc(F)ccc45)CC3)ccc21 [Compound 9c, 7-(3-(4-(6-Fluorobenzo[d]isoxazol-3-yl)piperidin-1-yl)propoxy)spiro[chromane-2,1′-cyclopentan]-4-one] | 8.3 ± 0.9 | 91 to 93 | 18.9 ± 2.1 | – |
| 7-(4-(4-(6-Fluorobenzo[d]isoxazol-3-yl)piperidin-1-yl)butoxy)-8-methylchroman-4-one [Compound 13d] | – | – | – | Ki (5-HT2A receptor; [3]): 13.7 ± 1.9 nM; Ki (D2 receptor; [4]): 22.9 ± 3.1 nM |
| CC1CC(=O)c2ccc(OCCCCN3CCC(c4noc5cc(F)ccc45)CC3)cc2O1 (centres unmarked) [Compound 16a, 7-(4-(4-(6-Fluorobenzo[d]isoxazol-3-yl)piperidin-1-yl)butoxy)-2-methylchroman-4–one] | 7.9 ± 0.5 | 95 to 97 | 19.7 ± 2.7 | – |
| 7-(4-(4-(6-Fluorobenzo[d]isoxazol-3-yl)piperidin-1-yl)butoxy)-5-methylchroman-4-one [Compound 13b] | – | – | – | Ki (5-HT2A receptor; [3]): 10.5 ± 1.3 nM; Ki (D2 receptor; [4]): 28.9 ± 3.4 nM |
| CC1(C)CC(=O)c2ccc(OCCCCN3CCN(c4cccc(C(F)(F)F)c4)CC3)cc2O1 [Compound 6c, 2,2-Dimethyl-7-(4-(4-(3-(trifluoromethyl)phenyl)piperazin-1-yl)butoxy) chroman-4-one] | 147 ± 16.9 | 139 to 140 | 1130 ± 108 | – |
| CC1(C)CC(=O)c2ccc(OCCCCN3CCN(c4cccc5sccc45)CC3)cc2O1 [Compound 6h, 7-(4-(4-(Benzo[b]thiophen-4-yl)piperazin-1-yl)butoxy)-2,2-dimethylchroman-4-one] | 55.2 ± 4.9 | – | 43.1 ± 5.7 | – |
| COc1ccccc1N1CCN(CCCCOc2ccc3c(c2)OC2(CCCC2)CC3=O)CC1 [Compound 9b, 7-(4-(4-(2-Methoxyphenyl)piperazin-1-yl)butoxy) spiro[chromane-2,1′-cyclopentan]-4-one] | 61.7 ± 8.6 | 96 to 98 | 3790 ± 409 | – |
| Cc1cccc(N2CCN(CCCCOc3ccc4c(c3)OC3(CCCCC3)CC4=O)CC2)c1C [Compound 9i, 7-(4-(4-(2,3-Dimethylphenyl)piperazin-1-yl)butoxy)spiro[chromane-2,1′-cyclohexan]-4-one] | 67.5 ± 7.4 | 138 to 140 | 154 ± 19.6 | – |
| CC1(C)CC(=O)c2ccc(OCCCCN3CCN(c4ccccc4F)CC3)cc2O1 [Compound 6b, 7-(4-(4-(2-Fluorophenyl)piperazin-1-yl)butoxy)-2,2-dimethylchroman-4-one] | 72.5 ± 8.4 | 135 to 137 | 777 ± 84.7 | – |
| CC1(C)CC(=O)c2ccc(OCCCCN3CCN(c4ncccn4)CC3)cc2O1 [Compound 6f, 2,2-Dimethyl-7-(4-(4-(pyrimidin-2-yl)piperazin-1-yl)butoxy) chroman-4-one] | 1140 ± 152 | 128 to 131 | > 10000 | – |
| O=C1CC2(CCCCC2)Oc2cc(OCCCN3CCN(c4ccccc4C(F)(F)F)CC3)ccc21 [Compound 9f, 7-(3-(4-(2-(Trifluoromethyl)phenyl)piperazin-1-yl)propoxy)spiro[chromane-2,1′-cyclohexan]-4-one] | 76.7 ± 9.4 | 138 to 140 | 915 ± 90.3 | – |
| CC1CC(=O)c2ccc(OCCCCN3CCC(c4noc5cc(F)ccc45)CC3)c(Cl)c2O1 (centres unmarked) [Compound 16b, 8-Chloro-7-(4-(4-(6-fluorobenzo[d]isoxazol-3-yl)piperidin-1-yl)butoxy)-2-methylchroman-4-one] | 8.1 ± 1.1 | 99 to 101 | 21.4 ± 2.4 | – |
| NCCc1ccc(O)c(O)c1 [dopamine] | – | – | – | Activation (10 μM, %) (D2L receptor; D2L, agonist mode, 10 μM, n = 3): 101.3 ± 5.3% |
| O=C1CC2(CCCCC2)Oc2cc(OCCCCN3CCC(c4nsc5ccccc45)CC3)ccc21 [Compound 9k, 7-(4-(4-(Benzo[d]isothiazol-3-yl)piperidin-1-yl)butoxy)spiro[chromane-2,1′-cyclohexan]-4-one] | 75.6 ± 8.6 | 129 to 130 | 35.1 ± 4.7 | – |
| Cc1cc2c(cc1OCCCCN1CCC(c3noc4cc(F)ccc34)CC1)OCCC2=O [Compound 13c, 7-(4-(4-(6-Fluorobenzo[d]isoxazol-3-yl)piperidin-1-yl)butoxy)-6-methylchroman-4-one] | 15.9 ± 2.3 | 91 to 93 | 25.8 ± 3.9 | – |
